Results on 79 molecules are retold here after the Kinase Knowledgebase extract (Sharma et al. 2016).

pIC50: −log10 of the molar value. Some results are limits rather than exact numbers.

For the experiment, the target named is EGFR (UniProt P00533).
EGFR, sequence (P00533 whole entry, looked up): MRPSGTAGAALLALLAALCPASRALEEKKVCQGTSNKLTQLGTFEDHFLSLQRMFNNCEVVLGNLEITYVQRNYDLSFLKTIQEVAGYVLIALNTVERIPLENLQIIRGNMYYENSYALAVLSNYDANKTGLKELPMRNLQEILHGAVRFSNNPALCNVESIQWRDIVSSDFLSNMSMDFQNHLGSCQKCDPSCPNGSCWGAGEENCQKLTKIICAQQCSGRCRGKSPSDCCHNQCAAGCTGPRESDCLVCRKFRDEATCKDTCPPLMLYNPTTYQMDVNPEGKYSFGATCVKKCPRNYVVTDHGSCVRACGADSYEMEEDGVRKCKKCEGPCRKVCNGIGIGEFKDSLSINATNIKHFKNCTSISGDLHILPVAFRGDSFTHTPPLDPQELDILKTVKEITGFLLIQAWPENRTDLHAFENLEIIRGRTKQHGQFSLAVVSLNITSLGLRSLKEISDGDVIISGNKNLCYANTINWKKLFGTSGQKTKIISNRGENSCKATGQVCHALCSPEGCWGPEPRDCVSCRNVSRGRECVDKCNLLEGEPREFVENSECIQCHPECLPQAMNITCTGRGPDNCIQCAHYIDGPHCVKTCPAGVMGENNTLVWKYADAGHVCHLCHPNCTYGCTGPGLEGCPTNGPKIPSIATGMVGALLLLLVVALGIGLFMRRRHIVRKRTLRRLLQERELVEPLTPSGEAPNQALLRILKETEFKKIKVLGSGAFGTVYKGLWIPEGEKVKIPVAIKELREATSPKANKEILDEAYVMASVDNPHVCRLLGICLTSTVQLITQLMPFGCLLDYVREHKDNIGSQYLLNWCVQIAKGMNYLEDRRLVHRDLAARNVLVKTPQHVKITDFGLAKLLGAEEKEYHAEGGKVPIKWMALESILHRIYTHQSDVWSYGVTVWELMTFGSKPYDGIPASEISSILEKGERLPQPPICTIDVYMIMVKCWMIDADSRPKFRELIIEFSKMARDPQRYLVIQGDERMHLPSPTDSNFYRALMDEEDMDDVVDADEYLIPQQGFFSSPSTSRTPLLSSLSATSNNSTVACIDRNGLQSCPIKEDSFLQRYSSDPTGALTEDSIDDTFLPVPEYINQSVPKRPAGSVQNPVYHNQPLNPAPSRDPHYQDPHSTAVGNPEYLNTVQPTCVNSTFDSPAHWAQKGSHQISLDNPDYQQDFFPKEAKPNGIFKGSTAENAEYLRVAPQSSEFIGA
Take `COc1cc2c(Nc3ccc(Cl)c(Cl)c3)ncnc2cc1OCC1CN(S(=O)(=O)c2ccc(F)cc2)CCO1` (centres undefined): the pIC50 is > 7.30.

With `COc1cc2c(Nc3ccc(F)c(Cl)c3F)ncnc2cc1OC[C@H]1CN2CCOC[C@H]2CO1`, the pIC50 is > 7.30.

Consider `COc1cc2c(Nc3ccc(Br)c(Cl)c3)ncnc2cc1O[C@H]1CO[C@@H]2[C@H]1OC[C@@H]2N1CCCCC1`, for which the pIC50 was > 7.30.

Take `COc1cc(Nc2ncnc3cc(O[C@@H]4CO[C@@H]5[C@H]4OC[C@H]5F)c(OC)cc23)c(OC)cc1Cl`: the pIC50 was > 7.30.

With `CCCCc1ccc(C(=O)N2CCOC(COc3cc4ncnc(Nc5ccc(Cl)c(Cl)c5)c4cc3OC)C2)cc1` (centres undefined), the pIC50 is > 7.30.

Take `CCN1CCCCC1c1nc(COc2cc3ncnc(Nc4ccc(Cl)c(Cl)c4)c3cc2OC)no1` (centres undefined): the pIC50 was > 7.30.

For the molecule `COc1cc2c(Nc3ccc(Cl)c(Cl)c3)ncnc2cc1OCc1noc(-c2c(C)noc2C)n1`, the pIC50 was > 7.30.

As to `CNC(=NC#N)N1CCOC(COc2cc3ncnc(Nc4ccc(Cl)c(Cl)c4)c3cc2OC)C1` (centres undefined), the negative-log IC50 (pIC50) was > 7.30.

With `COc1cc2c(Nc3ccc(Cl)c(Cl)c3)ncnc2cc1OCC1CN(CC2CC2)CCCO1` (centres undefined), the pIC50 was > 7.30.

For the molecule `COc1cc2c(Nc3ccc(Cl)c(Cl)c3C)ncnc2cc1OCC1CN(C)CCO1` (centres undefined), the pIC50 was > 7.30.

As to `COc1cc2c(Nc3ccc(Cl)c(Cl)c3)ncnc2cc1OCc1nc([C@@H]2CCCN2C)no1`, the pIC50 is > 7.30.

For `COc1cc2c(Nc3cccc(Br)c3C)ncnc2cc1O[C@H]1CO[C@H]2[C@@H]1OC[C@@H]2OC`, the pIC50 was > 7.30.

In the case of `COc1cc2c(Nc3cc(F)c(Br)c(Cl)c3)ncnc2cc1O[C@@H]1CO[C@@H]2[C@H]1OC[C@H]2F`, the pIC50 is > 7.30.

For the molecule `COc1cc2c(Nc3ccc(Cl)c(Cl)c3F)ncnc2cc1OC[C@@H]1CN2CCC[C@H]2C(=O)N1C`, the pIC50 was > 7.30.

Regarding `COc1cc2c(Nc3cc(Cl)c(Br)cc3F)ncnc2cc1O[C@@H]1CO[C@@H]2[C@H]1OC[C@H]2F`, the pIC50 was > 7.30.

Consider `COc1cc2c(Nc3ccc(Cl)c(Cl)c3)ncnc2cc1OCC1CN(C(=O)c2cc(F)ccc2F)CCO1` (centres undefined), for which the pIC50 is > 7.30.

As for `CCC#CCN1CCOC(COc2cc3ncnc(Nc4ccc(Cl)c(Cl)c4)c3cc2OC)C1` (centres undefined), the pIC50 was > 7.30.

Consider `COc1cccc(CC(=O)N2CCOC(COc3cc4ncnc(Nc5ccc(Cl)c(Cl)c5)c4cc3OC)C2)c1` (centres undefined), for which the pIC50 was > 7.30.

Consider `COc1cc2c(Nc3ccc(Cl)c(Cl)c3)ncnc2cc1OCC1CN(C2CCN(C)CC2)CCO1` (centres undefined), for which the pIC50 was > 7.30.

Consider `COc1cc2c(Nc3ccc(Br)c(Cl)c3)ncnc2cc1O[C@H]1CO[C@@H]2[C@H]1OC[C@@H]2OC(C)=O`, for which the negative logarithm of the IC50 (pIC50) is > 7.30.

For the molecule `COc1cc2c(Nc3cccc(Cl)c3F)ncnc2cc1O[C@H]1CO[C@@H]2[C@H]1OC[C@@H]2F`, the pIC50 is > 7.30.

As to `COc1cc2c(Nc3cc(F)c(F)cc3F)ncnc2cc1O[C@@H]1CO[C@@H]2[C@H]1OC[C@H]2F`, the pIC50 was > 7.30.

As for `COc1cc2c(Nc3cc(Br)cc(C(F)(F)F)c3)ncnc2cc1O[C@@H]1CO[C@@H]2[C@H]1OC[C@H]2F`, the pIC50 was > 7.30.

`CCN(CC)[C@H]1CO[C@@H]2[C@H]1OC[C@@H]2Oc1cc2ncnc(Nc3ccc(Br)c(Cl)c3)c2cc1OC`: the pIC50 was > 7.30.

Consider `COc1cc2c(Nc3ccc(Br)c(Cl)c3Cl)ncnc2cc1O[C@@H]1CO[C@@H]2[C@H]1OC[C@H]2F`, for which the negative-log IC50 (pIC50) was > 7.30.

With `COc1cc2c(Nc3ccc(Br)c(Cl)c3)ncnc2cc1O[C@H]1CO[C@@H]2[C@H]1OC[C@@H]2N(C)C`, the pIC50 is > 7.30.

With `COc1cc2c(Nc3cc(Cl)c(Cl)cc3F)ncnc2cc1OC[C@@H]1CO[C@H]2[C@@H]1OC[C@@H]2O`, the pIC50 is > 7.30.

Consider `COc1cc2c(Nc3ccc(Br)c(Cl)c3)ncnc2cc1O[C@@H]1CO[C@@H]2[C@H]1OC[C@@H]2OS(C)(=O)=O`, for which the pIC50 was > 7.30.

As to `COC(=O)CCN1CCOC(COc2cc3ncnc(Nc4ccc(Cl)c(Cl)c4)c3cc2OC)C1` (centres undefined), the pIC50 was > 7.30.

Consider `COc1cc2c(Nc3ccc(Cl)c(Cl)c3Cl)ncnc2cc1O[C@H]1CO[C@H]2[C@@H]1OC[C@@H]2OC`, for which the pIC50 is > 7.30.

For `COc1cc2c(Nc3ccc(Cl)c(Cl)c3)ncnc2cc1OCC1CCCO1` (centres undefined), the pIC50 was > 7.30.

Take `CCN(CC)c1ccc(-c2csc(COc3cc4ncnc(Nc5ccc(Cl)c(Cl)c5)c4cc3OC)n2)cc1`: the pIC50 was > 7.30.

As to `COc1cc2c(Nc3ccc(Br)c(Cl)c3Cl)ncnc2cc1OC[C@H]1C[C@@H]2CN(C)C[C@@H]2C1`, the pIC50 is > 7.30.

With `COc1cc2c(Nc3cccc(Cl)c3C)ncnc2cc1O[C@H]1CO[C@H]2[C@@H]1OC[C@@H]2OC`, the pIC50 was > 7.30.

Take `COc1cc2c(Nc3ccc(N4CCN(C)CC4)c(Cl)c3Cl)ncnc2cc1O[C@H]1CO[C@@H]2[C@H]1OC[C@@H]2F`: the pIC50 is > 7.30.

Consider `COc1cc2c(Nc3ccc(Cl)c(Cl)c3)ncnc2cc1OCc1csc([C@@H]2CSCN2)n1`, for which the pIC50 is > 7.30.

With `COc1cc2c(Nc3ccc(Br)cc3)ncnc2cc1O[C@@H]1CO[C@@H]2[C@H]1OC[C@H]2F`, the pIC50 is > 7.30.

Consider `COc1cc2c(Nc3ccc(Cl)c(Cl)c3)ncnc2cc1OCc1cc(F)cc2c1OCOC2`, for which the pIC50 was > 7.30.

Take `COc1cc2c(Nc3ccc(Cl)c(Cl)c3)ncnc2cc1OCC1CN(CC2CCCCC2)CCCO1` (centres undefined): the pIC50 was > 7.30.

`COc1cc2c(Nc3ccc(Cl)c(Cl)c3)ncnc2cc1OCc1nc(-c2ccncc2)cs1`: the pIC50 is > 7.30.

As for `CCCCCCCCN1CCOC(COc2cc3ncnc(Nc4ccc(Cl)c(Cl)c4)c3cc2OC)C1` (centres undefined), the pIC50 was > 7.30.

As for `COc1cc2c(Nc3ccc(Cl)c(Cl)c3)ncnc2cc1OCc1nnc(-c2ccc(C)cc2)o1`, the pIC50 is > 7.30.

As to `COc1cc2c(Nc3ccc(Br)c(Cl)c3Cl)ncnc2cc1OC[C@@H]1CN2CCOC[C@H]2CO1`, the pIC50 is > 7.30.

For `COc1cc2c(Nc3cc(C(F)(F)F)ccc3Cl)ncnc2cc1O[C@@H]1CO[C@@H]2[C@H]1OC[C@H]2F`, the negative logarithm of the IC50 (pIC50) was > 7.30.

Turning to `COc1cc2c(Nc3ccc(Cl)c(Cl)c3)ncnc2cc1OCc1csc(CO)n1`, the pIC50 was > 7.30.

As to `COc1cc2c(Nc3ccc(Br)c(Cl)c3F)ncnc2cc1OC[C@@H]1CN(C)CC(=O)N1C`, the pIC50 was > 7.30.

Regarding `CN1CCOC(COc2cc3ncnc(Nc4ccc(Cl)c(Cl)c4)c3cc2O)C1` (centres undefined), the pIC50 was > 7.30.

With `COc1cc2c(Nc3ccc(Cl)c(Cl)c3)ncnc2cc1OCCN1CCOCC1`, the pIC50 was > 7.30.

`COc1cc2c(Nc3ccc(Br)cc3Cl)ncnc2cc1O[C@@H]1CO[C@@H]2[C@H]1OC[C@H]2F`: the pIC50 was > 7.30.

Take `COc1cc2c(Nc3ccc(Br)c(Cl)c3)ncnc2cc1O[C@H]1CO[C@H]2[C@@H]1OC[C@]2(O)C(F)(F)F`: the pIC50 is > 7.30.

For the molecule `COc1cc2c(Nc3ccc(F)c(Cl)c3)ncnc2cc1OCC1CN(C)CCO1` (centres undefined), the pIC50 was > 7.30.

With `COc1cc2c(Nc3ccc(Cl)c(Cl)c3)ncnc2cc1OCC1CN(CCC2CCCCC2)CCO1` (centres undefined), the pIC50 is > 7.30.

As for `COc1cc2c(Nc3ccc(Cl)c(Cl)c3)ncnc2cc1OCC1CN(S(=O)(=O)Cc2ccccc2)CCO1` (centres undefined), the pIC50 was > 7.30.

Consider `COc1cc2c(Nc3ccc(Cl)c(Cl)c3)ncnc2cc1OCCNC1CC2CCC(C1)N2C` (centres undefined), for which the pIC50 was > 7.30.

Turning to `CC(C)Oc1cc2c(Nc3ccc(Cl)c(Cl)c3)ncnc2cc1OCC1CNCCO1` (centres undefined), the pIC50 is > 7.30.

Turning to `COc1cc2c(Nc3ccc(Cl)c(Cl)c3)ncnc2cc1OC[C@@H]1O[C@@H](OC)[C@@H](O)[C@@H](O)[C@H]1O`, the pIC50 is > 7.30.

For the molecule `COc1cc2c(Nc3ccc(Cl)c(Cl)c3)ncnc2cc1OCC1CCC1`, the pIC50 was > 7.30.

For the molecule `COc1cc2c(Nc3ccc(Br)c(Cl)c3)ncnc2cc1O[C@@H]1CCOC1`, the pIC50 is > 7.30.

In the case of `CCNC(=NC#N)N1CCOC(COc2cc3ncnc(Nc4ccc(Cl)c(Cl)c4)c3cc2OC)C1` (centres undefined), the pIC50 was > 7.30.

Consider `COc1cc2c(Nc3ccc(Cl)c(Cl)c3)ncnc2cc1OCc1nc(CS(=O)(=O)c2ccccn2)no1`, for which the pIC50 is > 7.30.

For `CCCCCCN1CCOC(COc2cc3ncnc(Nc4ccc(Cl)c(Cl)c4)c3cc2OC)C1` (centres undefined), the pIC50 was > 7.30.

`COc1cc2c(Nc3ccc(Cl)c(Cl)c3)ncnc2cc1OCC1CN(C2CCC2)CCO1` (centres undefined): the pIC50 was > 7.30.

For the molecule `COc1cc2c(Nc3ccc(Cl)c(Cl)c3)ncnc2cc1OCC1CN(S(=O)(=O)c2ccc(C)cc2)CCO1` (centres undefined), the pIC50 is > 7.30.

Take `COc1cc2c(Nc3ccc(Cl)c(Cl)c3)ncnc2cc1OCC1CN(CCC2OCCCO2)CCO1` (centres undefined): the negative logarithm of the IC50 (pIC50) is > 7.30.

For the molecule `COc1cc2c(Nc3ccc(Cl)c(Cl)c3Cl)ncnc2cc1O[C@@H]1CO[C@@H]2[C@H]1OC[C@H]2F`, the pIC50 was > 7.30.

For `C=CCCCN1CCOC(COc2cc3ncnc(Nc4ccc(Cl)c(Cl)c4)c3cc2OC)C1` (centres undefined), the pIC50 is > 7.30.

With `COc1cc2c(Nc3ccc(Cl)c(Cl)c3)ncnc2cc1OCC1CN(CCc2ccccc2)CCO1` (centres undefined), the pIC50 is > 7.30.

Regarding `COc1cc2c(Nc3ccc(Br)c(Cl)c3F)ncnc2cc1OC[C@H]1CN2CCOC[C@H]2CO1`, the pIC50 is > 7.30.

With `COc1cc2c(Nc3ccc(C)c(Br)c3)ncnc2cc1O[C@@H]1CO[C@@H]2[C@H]1OC[C@H]2F`, the pIC50 was > 7.30.

In the case of `COc1cc2c(Nc3ccc(Br)cc3Cl)ncnc2cc1OCC1CN(C)CCO1` (centres undefined), the pIC50 is > 7.30.

Turning to `COc1cc2c(Nc3ccc(Cl)c(Cl)c3)ncnc2cc1OCCC1CC2CCC(C1)N2C` (centres undefined), the pIC50 was > 7.30.

With `COc1cc2c(Nc3ccc(Cl)c(Cl)c3)ncnc2cc1OCc1noc(OCc2ccccc2)n1`, the pIC50 was > 7.30.

On to `COc1ccc(-c2nc(COc3cc4ncnc(Nc5ccc(Cl)c(Cl)c5)c4cc3OC)no2)cc1`, for which the pIC50 was > 7.30.

In the case of `COc1cc2c(Nc3ccc(Cl)c(Cl)c3)ncnc2cc1OC1C[C@@H]2CN(C)C[C@@H]2C1` (some centres undefined), the pIC50 is > 7.30.

Consider `COc1cc2c(Nc3cc(F)cc(F)c3)ncnc2cc1O[C@@H]1CO[C@@H]2[C@H]1OC[C@H]2F`, for which the pIC50 was > 7.30.

Take `COCCOc1cc2c(Nc3ccc(Cl)c(Cl)c3)ncnc2cc1OCC1CN(C)CCO1` (centres undefined): the pIC50 was > 7.30.

In the case of `COc1cc2c(Nc3ccc(Br)c(Cl)c3F)ncnc2cc1OCC1CN(C)C(C)(C)CO1` (centres undefined), the pIC50 was > 7.30.

Regarding `COc1cc2c(Nc3ccc(Cl)c(Cl)c3)ncnc2cc1OCc1noc(C2CCCCN2C(=O)OC(C)(C)C)n1` (centres undefined), the pIC50 is > 7.30.

For `COc1cc2c(Nc3ccc(F)c(Cl)c3F)ncnc2cc1O[C@H]1CO[C@H]2[C@@H]1OC[C@@H]2OC`, the pIC50 was > 7.30.
